Assay results as given in patent publication US7754220B2, “Methods of inhibiting secretion of follicle-stimulating hormone and testosterone” (Takeda Pharmaceutical Company Limited, priority 2003, dated 2010).

Assay: Level of human metastin in plasma by EIA after sustained administration
Format: in vivo
Conditions: rat, sc, male Copenhagen rats, continuous s.c. administration by osmotic pumps at 6.0 nmol/hr, 7 days after implantation
Method: Male Copenhagen rats of 8 weeks old after birth (Charles River Laboratories, US) were anesthetized by giving an intraperitoneal injection of sodium pentobarbital (Nembutal, Dainippon Pharmaceutical Co., Ltd.) in a dose of 50 mg/kg body weight. Then, two ALZET osmotic pumps (Model 2001, volume: 200 μL, rate: 1.0 μL/hr) filled with a 3 mM human metastin solution in distilled water (metastin group) or with distilled water (distilled water group) were implanted subcutaneously in rats at the back (5 rats in each group), whereby human metastin was continuously administered at a rate of 6.0 nmol/hr in the metastin group. For the intraperitoneal administration of sodium pentobarbital, a 1 mL tuberculin syringe and a 26-gauge needle (both by Terumo Co., Ltd.) were used. Following weighing the body weight 7 days after the implantation of the pumps, the animal was sacrificed by decapitation to collect blood. At the same time, the weight of testis was weighed. […] The levels of FSH (follicle-stimulating hormone), LH (luteinizing hormone) and testosterone contained in plasma were determined by radioimmunoassay (Rat Follicle Stimulating Hormone (rFSH) [^125I] Biotrack Assay System with Magnetic Separation, Rat Luteinizing Hormone (rLH) [^125I] Biotrack Assay System with Magnetic Separation, all by Amersham Biosciences, and DPC.Total Testosterone by Diagnostic Products Corporation).

level at time molar at 168 h: ~3.2 nM
Structure (SMILES): CC[C@H](C)[C@H](NC(=O)[C@H](CCC(N)=O)NC(=O)[C@H](CCCNC(=N)N)NC(=O)[C@H](CO)NC(=O)[C@H](Cc1c[nH]cn1)NC(=O)[C@@H]1CCCN1C(=O)[C@H](C)NC(=O)[C@H](CO)NC(=O)[C@H](CC(C)C)NC(=O)CNC(=O)[C@@H]1CCCN1C(=O)[C@H](CCC(N)=O)NC(=O)[C@H](CCC(N)=O)NC(=O)[C@H](CCCNC(=N)N)NC(=O)[C@H](CO)NC(=O)CNC(=O)[C@H](CO)NC(=O)[C@H](CO)NC(=O)[C@H](CCC(=O)O)NC(=O)[C@@H]1CCCN1C(=O)[C@@H]1CCCN1C(=O)[C@@H]1CCCN1C(=O)[C@H](CO)NC(=O)[C@H](CC(C)C)NC(=O)[C@H](CO)NC(=O)[C@@H](NC(=O)CN)[C@@H](C)O)C(=O)N1CCC[C@H]1C(=O)N[C@@H](C)C(=O)N1CCC[C@H]1C(=O)N[C@@H](CCC(N)=O)C(=O)NCC(=O)N[C@@H](C)C(=O)N[C@H](C(=O)N[C@@H](CC(C)C)C(=O)N[C@H](C(=O)N[C@@H](CCC(N)=O)C(=O)N[C@@H](CCCNC(=N)N)C(=O)N[C@@H](CCC(=O)O)C(=O)N[C@@H](CCCCN)C(=O)N[C@@H](CC(=O)O)C(=O)N[C@@H](CC(C)C)C(=O)N1CCC[C@H]1C(=O)N[C@@H](CC(N)=O)C(=O)N[C@@H](Cc1ccc(O)cc1)C(=O)N[C@@H](CC(N)=O)C(=O)N[C@@H](Cc1c[nH]c2ccccc12)C(=O)N[C@@H](CC(N)=O)C(=O)N[C@@H](CO)C(=O)N[C@@H](Cc1ccccc1)C(=O)NCC(=O)N[C@@H](CC(C)C)C(=O)N[C@@H](CCCNC(=N)N)C(=O)N[C@@H](Cc1ccccc1)C(N)=O)C(C)C)C(C)C [Human metastin]
